Target: T1, human GPR84 receptor (Homo sapiens, UniProt Q9NQS5)
T1 construct: host or cells: HEK293, transiently transfected
Test: Gαi biosensor BRET assay (GPR84 antagonism vs agonist ZQ-16)
Type: cell-based
Conditions: HEK293 cells, 200 nmol/L agonist ZQ-16; for IC50: Gαi biosensor BRET assay; for inhibition at 2 µM: tested at 2 μM (concentration code A); for inhibition at 10 µM: tested at 10 μM (concentration code D)
Outline: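 HEK293 cells transiently expressing GPR84, Gαi2-Rluc8, GFP10-Gγ2 and Gβ1 were pre-incubated with compounds 5 min at 37 °C in Tyrode's buffer pH 7.5, then stimulated with 200 nmol/L ZQ-16 for 5 min at room temperature. BRET2 (acceptor/donor ratio) read after 5 μmol/L coelenterazine 400A, background- and vehicle-corrected.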

T1 sequence (Q9NQS5 whole entry): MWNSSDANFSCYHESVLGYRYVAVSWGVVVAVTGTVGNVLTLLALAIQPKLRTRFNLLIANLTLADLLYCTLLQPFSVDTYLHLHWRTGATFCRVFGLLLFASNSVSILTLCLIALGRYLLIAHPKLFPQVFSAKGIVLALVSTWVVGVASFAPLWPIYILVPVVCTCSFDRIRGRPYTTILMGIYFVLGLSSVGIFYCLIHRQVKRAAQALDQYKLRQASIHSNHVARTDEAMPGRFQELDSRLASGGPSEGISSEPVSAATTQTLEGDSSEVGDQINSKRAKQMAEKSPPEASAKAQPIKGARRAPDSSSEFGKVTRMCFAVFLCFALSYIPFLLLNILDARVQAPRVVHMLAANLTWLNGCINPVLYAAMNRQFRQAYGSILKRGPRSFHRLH

Row | SMILES | IC50 | inhibition at 2 µM | inhibition at 10 µM | inhibition at 5.4 µM (tested at 5.4 μM (concentration code C))
1 | CCN(CC)C(=O)COc1cc(C)n([C@H](C)c2ccc(C#CC3CC3)cc2)c(=O)c1 [Compound I-268] | ≤ 0.3 µM | > 75% | – | –
2 | Cc1cc(OCC(=O)C(C)C)cc(=O)n1[C@H](C)c1ccc(C#CC2CC2)cc1 [Compound I-270] | ≤ 0.3 µM | > 75% | – | –
3 | CC(=O)C(C)(C)Oc1cc(C)n([C@H](C)c2ccc(C#CC3CC3)cc2)c(=O)c1 [Compound I-271] | – | – | 25 to 50% | –
4 | Cc1cc(OCC(=O)C(C)(C)C)cc(=O)n1[C@H](C)c1ccc(C#CC2CC2)cc1 [Compound I-272] | 0.3 to 1 µM | > 75% | – | –
5 | Cc1cc(OCC(=O)C2CCCC2)cc(=O)n1[C@H](C)c1ccc(C#CC2CC2)cc1 [Compound I-273] | – | – | > 75% | –
6 | Cc1cc(OCC(O)C(C)C)cc(=O)n1[C@H](C)c1ccc(C#CC2CC2)cc1 (some centres unmarked) [Compound I-274] | – | – | > 75% | –
7 | COC(COc1cc(C)n([C@H](C)c2ccc(C#CC3CC3)cc2)c(=O)c1)C(C)C (some centres unmarked) [Compound I-275] | – | – | > 75% | –
8 | Cc1cc(OCC(O)C(C)(C)C)cc(=O)n1[C@H](C)c1ccc(C#CC2CC2)cc1 (some centres unmarked) [Compound I-276] | 0.3 to 1 µM | – | > 75% | –
9 | COC(COc1cc(C)n([C@H](C)c2ccc(C#CC3CC3)cc2)c(=O)c1)C(C)(C)C (some centres unmarked) [Compound I-277] | > 3 µM | – | > 75% | –
10 | Cc1cc(OCC(=O)N(C2CC2)C2CC2)cc(=O)n1[C@H](C)c1ccc(C#CC2CC2)cc1 [Compound I-278] | ≤ 0.3 µM | > 75% | – | –
11 | Cc1cc(OCC(=S)N(C)C)cc(=O)n1[C@H](C)c1ccc(C#CC2CC2)cc1 [Compound I-279] | – | > 75% | – | –
12 | Cc1cc(OCCN(C)C)cc(=O)n1[C@H](C)c1ccc(C#CC2CC2)cc1 [Compound I-280] | – | – | 50 to 75% | –
13 | Cc1cc(OCCN2CCCC2)cc(=O)n1[C@H](C)c1ccc(C#CC2CC2)cc1 [Compound I-281] | – | – | 25 to 50% | –
14 | Cc1cc(OCC(=O)N2CC3(CCC3)C2)cc(=O)n1[C@H](C)c1ccc(C#CC2CC2)cc1 [Compound I-282] | ≤ 0.3 µM | > 75% | – | –
15 | Cc1cc(OCC(=O)N2CC3(COC3)C2)cc(=O)n1[C@H](C)c1ccc(C#CC2CC2)cc1 [Compound I-283] | ≤ 0.3 µM | – | > 75% | –
16 | Cc1cc(OCC(=O)N2CC3CC3C2)cc(=O)n1[C@H](C)c1ccc(C#CC2CC2)cc1 (some centres unmarked) [Compound I-284] | ≤ 0.3 µM | > 75% | – | –
17 | Cc1cc(OCC(=O)N2CC3C(C2)C3(C)C)cc(=O)n1[C@H](C)c1ccc(C#CC2CC2)cc1 (some centres unmarked) [Compound I-285] | 0.3 to 1 µM | – | > 75% | –
18 | Cc1cc(OCC(=O)N(C)C)c(O)c(=O)n1[C@H](C)c1ccc(C#CC2CC2)cc1 [Compound I-286] | – | – | 50 to 75% | –
19 | C[C@H](c1ccc(C#CC2CC2)cc1)n1c(CO)cc(OCC(=O)N(C)C)cc1=O [Compound I-287] | – | – | > 75% | –
20 | Cc1cc(OCC(=O)N2CC(F)C2)cc(=O)n1[C@H](C)c1ccc(C#CC2CC2)cc1 [Compound I-288] | 0.3 to 1 µM | > 75% | – | –

Row | SMILES | IC50 | inhibition at 2 µM | inhibition at 10 µM | inhibition at 5.4 µM (tested at 5.4 μM (concentration code C))
21 | Cc1cc(OCC(=O)N2CC3(CCO3)C2)cc(=O)n1[C@H](C)c1ccc(C#CC2CC2)cc1 [Compound I-289] | ≤ 0.3 µM | – | > 75% | –
22 | Cc1cc(OCC(=O)N2CC(C)C2)cc(=O)n1[C@H](C)c1ccc(C#CC2CC2)cc1 [Compound I-290] | ≤ 0.3 µM | > 75% | – | –
23 | Cc1cc(OCC(=O)N2CC(CO)C2)cc(=O)n1[C@H](C)c1ccc(C#CC2CC2)cc1 [Compound I-291] | ≤ 0.3 µM | > 75% | – | –
24 | COCC1CN(C(=O)COc2cc(C)n([C@H](C)c3ccc(C#CC4CC4)cc3)c(=O)c2)C1 [Compound I-292] | ≤ 0.3 µM | > 75% | – | –
25 | Cc1cc(OCC(=O)N2CC(O)C2)cc(=O)n1[C@H](C)c1ccc(C#CC2CC2)cc1 [Compound I-293] | ≤ 0.3 µM | > 75% | – | –
26 | COC1CN(C(=O)COc2cc(C)n([C@H](C)c3ccc(C#CC4CC4)cc3)c(=O)c2)C1 [Compound I-294] | ≤ 0.3 µM | > 75% | – | –
27 | C#Cc1ccc([C@@H](C)n2c(C)cc(OCC(=O)N(C)C)cc2=O)cc1 [Compound I-295] | – | – | – | > 75%
28 | Cc1nc(OCC(=O)N2CCC[C@@H]2C(=O)O)cc(=O)n1[C@H](C)c1ccc(C#CC2CC2)cc1 [Compound I-296] | – | – | 50 to 75% | –
29 | Cc1nc(OCC(=O)N2CCC[C@H]2C(=O)O)cc(=O)n1[C@H](C)c1ccc(C#CC2CC2)cc1 [Compound I-297] | – | – | > 75% | –
30 | Cc1nc(OCC(=O)N2CC[C@@H](C(=O)O)C2)cc(=O)n1[C@H](C)c1ccc(C#CC2CC2)cc1 [Compound I-298] | – | – | > 75% | –
31 | Cc1nc(OCC(=O)N2CC[C@H](C(=O)O)C2)cc(=O)n1[C@H](C)c1ccc(C#CC2CC2)cc1 [Compound I-299] | 1 to 3 µM | > 75% | – | –
32 | Cc1cc(OCC(=O)N2CC[C@@H]2C(=O)O)cc(=O)n1[C@H](C)c1ccc(C#CC2CC2)cc1 [Compound I-300] | 1 to 3 µM | – | > 75% | –
33 | Cc1cc(OCC(=O)N2CC[C@H]2C(=O)O)cc(=O)n1[C@H](C)c1ccc(C#CC2CC2)cc1 [Compound I-301] | 1 to 3 µM | – | > 75% | –
34 | Cc1cc(OCC(=O)N2CC(C(=O)O)C2)cc(=O)n1[C@H](C)c1ccc(C#CC2CC2)cc1 [Compound I-302] | ≤ 0.3 µM | > 75% | – | –
35 | Cc1cc(OCC(=O)O)cc(=O)n1[C@@H](C)c1ccc(C#CC2CC2)cc1 [Compound I-303] | – | – | < 25% | –
36 | Cc1cc(OCC(=O)N2CC[C@H](C(=O)O)[C@H]2C)cc(=O)n1[C@H](C)c1ccc(C#CC2CC2)cc1 [Compound I-304] | ≤ 0.3 µM | – | > 75% | –
37 | Cc1cc(OCC(=O)N2CCC[C@H]2C#N)cc(=O)n1[C@H](C)c1ccc(C#CC2CC2)cc1 [Compound I-305] | ≤ 0.3 µM | > 75% | – | –
38 | Cc1cc(OCC(=O)N2CCC[C@@H]2C#N)cc(=O)n1[C@H](C)c1ccc(C#CC2CC2)cc1 [Compound I-306] | 0.3 to 1 µM | > 75% | – | –
39 | Cc1cc(OCC(=O)N2CCC[C@@H]2C2CC2)cc(=O)n1[C@H](C)c1ccc(C#CC2CC2)cc1 [Compound I-307] | ≤ 0.3 µM | > 75% | – | –
40 | Cc1cc(OCC(=O)N2CCC[C@H]2C2CC2)cc(=O)n1[C@H](C)c1ccc(C#CC2CC2)cc1 [Compound I-308] | 0.3 to 1 µM | > 75% | – | –

Row | SMILES | IC50 | inhibition at 2 µM | inhibition at 10 µM | inhibition at 5.4 µM (tested at 5.4 μM (concentration code C))
41 | Cc1cc(OCC(=O)N2CC[C@@H](C#N)C2)cc(=O)n1[C@H](C)c1ccc(C#CC2CC2)cc1 [Compound I-309] | ≤ 0.3 µM | > 75% | – | –
42 | Cc1cc(OCC(=O)N2CC[C@H](C#N)C2)cc(=O)n1[C@H](C)c1ccc(C#CC2CC2)cc1 [Compound I-310] | ≤ 0.3 µM | > 75% | – | –
43 | Cc1cc(OCC(=O)N2CC[C@@H](C3CC3)C2)cc(=O)n1[C@H](C)c1ccc(C#CC2CC2)cc1 [Compound I-311] | – | > 75% | – | –
44 | Cc1cc(OCC(=O)N2CC[C@H](C3CC3)C2)cc(=O)n1[C@H](C)c1ccc(C#CC2CC2)cc1 [Compound I-312] | – | > 75% | – | –
45 | Cc1cc(OCC(=O)N2CC(C)(CO)C2)cc(=O)n1[C@H](C)c1ccc(C#CC2CC2)cc1 [Compound I-313] | ≤ 0.3 µM | > 75% | – | –
46 | Cc1cc(OCC(=O)N2C[C@H](O)[C@@H](O)C2)cc(=O)n1[C@H](C)c1ccc(C#CC2CC2)cc1 [Compound I-314] | ≤ 0.3 µM | > 75% | – | –
47 | Cc1cc(OCC(=O)N2C[C@@H](O)[C@H](O)C2)cc(=O)n1[C@H](C)c1ccc(C#CC2CC2)cc1 [Compound I-315] | ≤ 0.3 µM | – | > 75% | –
48 | Cc1cc(OCC(=O)N2C[C@@H](O)[C@@H](O)C2)cc(=O)n1[C@H](C)c1ccc(C#CC2CC2)cc1 [Compound I-316] | ≤ 0.3 µM | > 75% | – | –
49 | Cc1cc(OCC(=O)N(C)C)c(Br)c(=O)n1[C@H](C)c1ccc(C#CC2CC2)cc1 [Compound I-317] | – | – | 50 to 75% | –
50 | Cc1cc(OCC(=O)N2CCC[C@@H]2C(N)=O)cc(=O)n1[C@H](C)c1ccc(C#CC2CC2)cc1 [Compound I-318] | 0.3 to 1 µM | – | > 75% | –
51 | Cc1cc(OCC(=O)N2CCC3(CC3)C2)cc(=O)n1[C@H](C)c1ccc(C#CC2CC2)cc1 [Compound I-319] | ≤ 0.3 µM | > 75% | – | –
52 | Cc1cc(OCC(=O)N2CCCC23CC3)cc(=O)n1[C@H](C)c1ccc(C#CC2CC2)cc1 [Compound I-320] | ≤ 0.3 µM | – | > 75% | –
53 | CNS(=O)(=O)[C@@H]1CCN(C(=O)COc2cc(C)n([C@H](C)c3ccc(C#CC4CC4)cc3)c(=O)c2)C1 [Compound I-321] | ≤ 0.3 µM | > 75% | – | –
54 | CNS(=O)(=O)[C@H]1CCN(C(=O)COc2cc(C)n([C@H](C)c3ccc(C#CC4CC4)cc3)c(=O)c2)C1 [Compound I-322] | 0.3 to 1 µM | > 75% | – | –
55 | CNS(=O)(=O)C1CN(C(=O)COc2cc(C)n([C@H](C)c3ccc(C#CC4CC4)cc3)c(=O)c2)C1 [Compound I-323] | ≤ 0.3 µM | > 75% | – | –
56 | Cc1cc(OCC(=O)N2C3CCC2COC3)cc(=O)n1[C@H](C)c1ccc(C#CC2CC2)cc1 [Compound I-324] | ≤ 0.3 µM | > 75% | – | –
57 | Cc1cc(OCC(=O)N2CC3CCC(C2)O3)cc(=O)n1[C@H](C)c1ccc(C#CC2CC2)cc1 [Compound I-325] | ≤ 0.3 µM | > 75% | – | –
58 | Cc1cc(OCC(=O)N2CC3CCC2CO3)cc(=O)n1[C@H](C)c1ccc(C#CC2CC2)cc1 (some centres unmarked) [Compound I-326] | 1 to 3 µM | – | > 75% | –
59 | Cc1cc(OCC(=O)N2CC3CCC2CO3)cc(=O)n1[C@H](C)c1ccc(C#CC2CC2)cc1 (some centres unmarked) [Compound I-327] | 1 to 3 µM | > 75% | – | –

From patent publication US20260055117A1, “SUBSTITUTED PYRIDONE GPR84 ANTAGONISTS AND USES THEREOF” (Liminal BioSciences Limited, priority 2022, published 2026)
